Assay results from patent publication US6503935B1, “Imidazoles and related compounds as α1A agonists” (Abbott Laboratories, priority 1998, dated 2003).
Counter-ions that a name gives are not always drawn.

Assays:
[1] = molecular target: T1, α1A (rat submaxillary gland) (Rattus norvegicus, UniProt P43140); assay: Radioligand binding with [3H]-prazosin, α1A; conditions: rat submaxillary gland, [3H]-prazosin
T1 construct: α1A (rat submaxillary gland); from tissue; host or cells: rat submaxillary gland
T1 sequence (P43140 1-466): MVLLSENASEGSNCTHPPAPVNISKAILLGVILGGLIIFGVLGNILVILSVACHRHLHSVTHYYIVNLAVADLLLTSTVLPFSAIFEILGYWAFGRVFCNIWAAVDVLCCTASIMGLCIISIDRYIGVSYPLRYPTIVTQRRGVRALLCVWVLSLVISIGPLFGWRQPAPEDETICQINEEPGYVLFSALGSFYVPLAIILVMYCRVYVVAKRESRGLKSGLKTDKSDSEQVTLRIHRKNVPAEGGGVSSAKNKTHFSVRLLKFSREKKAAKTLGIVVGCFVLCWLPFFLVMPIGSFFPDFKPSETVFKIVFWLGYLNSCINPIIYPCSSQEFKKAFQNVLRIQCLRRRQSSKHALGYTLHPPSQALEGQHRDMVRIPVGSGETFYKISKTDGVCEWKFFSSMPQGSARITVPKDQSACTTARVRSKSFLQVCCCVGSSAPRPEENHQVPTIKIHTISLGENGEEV
Outline: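 Radioligand binding with [3H]-prazosin: α1A from rat submaxillary gland; α1b hamster receptor and α1d rat receptor, each expressed in mouse fibroblasts.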

α1B (rat spleen) = molecular target: T2, α1B (rat spleen) (Rattus norvegicus, UniProt P15823); assay: Agonist contraction of smooth muscle tissue, rat spleen; format: cell-based; conditions: rat spleen; read-out: Agonist Tissue Response (pD2) α1B (rat spleen) (converted)
T2 construct: α1B (rat spleen) and α1D (rat aorta) receptors; from tissue; host or cells: rat spleen
T2 sequence (P15823 1-515): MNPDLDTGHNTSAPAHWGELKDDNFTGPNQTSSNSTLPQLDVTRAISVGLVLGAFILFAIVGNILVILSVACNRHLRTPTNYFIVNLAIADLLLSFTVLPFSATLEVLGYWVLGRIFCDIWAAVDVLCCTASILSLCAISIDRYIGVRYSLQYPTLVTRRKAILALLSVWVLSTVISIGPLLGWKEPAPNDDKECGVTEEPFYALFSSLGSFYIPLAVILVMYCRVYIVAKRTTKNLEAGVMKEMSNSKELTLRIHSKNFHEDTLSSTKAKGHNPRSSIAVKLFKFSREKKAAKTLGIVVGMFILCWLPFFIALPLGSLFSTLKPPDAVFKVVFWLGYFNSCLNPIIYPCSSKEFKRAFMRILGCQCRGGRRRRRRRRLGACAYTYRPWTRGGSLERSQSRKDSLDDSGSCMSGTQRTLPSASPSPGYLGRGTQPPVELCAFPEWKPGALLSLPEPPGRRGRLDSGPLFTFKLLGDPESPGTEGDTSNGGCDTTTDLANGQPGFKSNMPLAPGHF

α1D (rat aorta) = molecular target: T3, α1D (rat aorta) (Rattus norvegicus, UniProt P23944); assay: Agonist contraction of smooth muscle tissue, rat aorta; format: cell-based; conditions: rat aorta, endothelium removed; for EC50: read-out: Agonist Tissue Response (pD2) α1D (rat aorta) (converted)
T3 construct: α1B (rat spleen) and α1D (rat aorta) receptors; from tissue; host or cells: rat aorta strips, endothelium removed
T3 sequence (P23944 1-561): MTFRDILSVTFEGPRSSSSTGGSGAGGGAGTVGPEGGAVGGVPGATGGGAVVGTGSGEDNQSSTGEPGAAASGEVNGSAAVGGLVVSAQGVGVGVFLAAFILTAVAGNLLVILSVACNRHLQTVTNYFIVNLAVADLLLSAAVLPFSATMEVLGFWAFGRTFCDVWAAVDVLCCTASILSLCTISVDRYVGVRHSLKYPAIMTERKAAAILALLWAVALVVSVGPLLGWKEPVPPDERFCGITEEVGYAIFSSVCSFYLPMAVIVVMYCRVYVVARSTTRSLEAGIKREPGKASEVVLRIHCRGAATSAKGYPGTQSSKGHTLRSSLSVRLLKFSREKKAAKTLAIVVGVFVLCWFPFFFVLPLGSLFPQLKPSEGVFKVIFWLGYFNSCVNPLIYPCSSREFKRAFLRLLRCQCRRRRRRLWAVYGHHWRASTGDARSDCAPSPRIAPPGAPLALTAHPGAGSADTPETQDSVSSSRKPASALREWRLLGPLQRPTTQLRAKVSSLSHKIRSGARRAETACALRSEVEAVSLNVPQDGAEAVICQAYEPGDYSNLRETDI

Anesthetized Dogs = assay: Mean arterial pressure (MAP) in anesthetized dogs; format: in vivo, dog; conditions: iv dose causing a maximum increase in MAP of 20 mm Hg, anesthetized female dogs
Outline: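 Female dogs (12–15 kg) with carotid telemetry implants, thiopental 15 mg/kg i.v. then isoflurane (2.5 to 3 volume %) anesthesia; increasing i.v. doses of agonist with return to baseline between doses. MAP from telemetered arterial pressure; ED20 = dose raising MAP by 20 mm Hg, compared with IUP ED5 as selectivity ratio.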

| SMILES | Ki [1] [µM] | EC50 (α1B (rat spleen)) [µM] | EC50 (α1D (rat aorta)) [µM] | Mean MAP ED20 (Anesthetized Dogs; maleate) [nmol/kg] | Agonist Tissue Response (pD2) α1D (rat aorta) (α1D (rat aorta)) | Mean MAP ED20 (Anesthetized Dogs) [nmol/kg] |
| --- | --- | --- | --- | --- | --- | --- |
| CCS(=O)(=O)Nc1cccc2c1CCCC2c1c[nH]cn1.O=C(O)/C=C\C(=O)O (single isomer, unassigned; (+)) [Example 33, (+)-N-[5-(1H-imidazol-4-yl)-5,6,7,8-tetrahydro-1-naphthalenyl]ethanesulfonamide, maleate] | 0.0468 | 3.8 | > 1000 | 34.0 | – | – |
| CCS(=O)(=O)Nc1cccc2c1CCCC2c1c[nH]cn1.O=C(O)/C=C\C(=O)O (single isomer, unassigned; (-)) [Example 34, (−)-N-[5-(1H-imidazol-4-yl)-5,6,7,8-tetrahydro-1-naphthalenyl]ethanesulfonamide, maleate] | 1.3 | > 1000 | – | >1000 | <3.00 | – |
| CCS(=O)(=O)Nc1cccc2c1CCCC2c1c[nH]cn1.O=C(O)/C=C\C(=O)O (stereo not drawn) [Example 12, N-[5-(1H-imidazol-4-yl)-5,6,7,8-tetrahydro-1-naphthalenyl]ethanesulfonamide, maleate] | 0.0959 | > 1000 | > 1000 | – | – | 69.3 |
| CN(c1cccc2c1CCCC2c1c[nH]cn1)S(C)(=O)=O (stereo not drawn) [Example 15, N-[5,6,7,8-tetrahydro-5-(1H-imidazol-4-yl)-1-naphthalenyl]-N-methylmethanesulfonmamide, maleate] | 0.204 | 2.24 | > 1000 | – | – | 225 |
| O=C(Nc1cccc2c1CCCC2c1c[nH]cn1)C(F)(F)F (stereo not drawn) [Example 17, 2,2,2-trifluoro-N-[5-(1H-imidazol-4-yl)-5,6,7,8-tetahydro-1-naphthalenyl]acetamide, maleate] | 0.167 | 3.39 | > 1000 | – | – | 216 |
| CS(=O)(=O)Nc1cccc(Cc2c[nH]cn2)c1.O=C(O)/C=C\C(=O)O [Example 21, N-[3-(1H-imidazol-4-ylmethyl)phenyl]methanesulfonamide, maleate] | 0.361 | > 1000 | > 1000 | – | – | 52.3 |
| COc1ccc(NS(C)(=O)=O)c2c1C(c1c[nH]cn1)CCC2 (stereo not drawn) [Example 26, N-[5,6,7,8-tetrahydro-(1H-imidazol-4-yl)-4-methoxyy-1-naphthalenyl]methanesulfonamide, maleate] | 1.68 | 18.2 | > 1000 | – | – | 1850 |
| Cc1c(Cc2c[nH]cn2)cccc1NS(C)(=O)=O.O=C(O)/C=C\C(=O)O [Example 28, N-[3-(1H-imidazol-4-ylmethyl)-2-methylphenyl]methanesulfonamide, maleate] | 0.525 | 7.76 | > 1000 | – | – | 158 |
| CCS(=O)(=O)Nc1cccc(Cc2c[nH]cn2)c1C.O=C(O)/C=C\C(=O)O [Example 29, N-[3-(1H-imidazol-4-ylmethyl)-2-methylphenyl]ethanesulfonamide, maleate] | 0.258 | > 1000 | > 1000 | – | – | 202 |
| CC(c1cccc(NS(C)(=O)=O)c1)c1c[nH]cn1.O=C(O)/C=C\C(=O)O (stereo not drawn) [Example 31, N-[3-[1-(1H-imidazol-4-yl)ethyl]phenyl]methanesulfonamide, maleate] | 0.837 | > 1000 | > 1000 | – | – | 234 |
| CS(=O)(=O)Nc1ccc(F)c2c1CCCC2c1c[nH]cn1.O=C(O)/C=C\C(=O)O (stereo not drawn) [Example 44, N-[4-fluoro-5-(1H-imidazol-4-yl)-5,6,7,8-tetrahydro-1-naphthalenyl]methanesulfonamide, maleate] | 0.31 | > 1000 | > 1000 | – | – | 632 |
| C=C(c1cccc(NS(=O)(=O)CC)c1)c1c[nH]cn1 [Example 45, N-{3-[1-(1H-imidazol-4-yl)vinyl]phenyly}ethanesulfonamide, maleate] | 0.565 | > 1000 | > 1000 | – | – | 633 |
